Test results taken from ChEMBL document CHEMBL3137667, “[Drug-induced liver injury; fourteenth updated edition of the bibliographic database of liver injuries and related drugs]” (Gastroenterol Clin Biol, 2004).

Legend:
[1] = human
[2] = human, serum, 4383 h
[3] = human; remark: listed apart in the source
[4] = Highest frequency of acute liver toxicity observed during clinical trials, expressed as a percentage. [column '% AIGUE' in source]; conditions: human
[5] = human; remark: listed apart in the source
[6] = human; remark: listed apart in the source
[7] = human; remark: listed apart in the source
[8] = Highest frequency of moderate liver toxicity observed during clinical trials, expressed as a percentage. [column '% BIOL' in source]; conditions: human
[9] = Times to onset, minimal and maximal, observed in the indexed observations. [column 'DELAI' in source]; conditions: human
[10] = human; remark: listed apart in the source
[11] = Comments (NB not yet translated). [column 'COMMENTAIRES' in source]; conditions: human
[12] = human; remark: listed apart in the source
[13] = human; remark: listed apart in the source
[14] = human, serum
[15] = human; remark: listed apart in the source
[16] = human, serum; remark: listed apart in the source
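For Hepatotoxicity (association with vascular disease) in this document: count of indexed literature references reporting vascular liver injury in humans, e.g. peliosis hepatitis, hepatic veno-occlusive disease or Budd-Chiari syndrome.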
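For Hepatotoxicity (benign tumour) in this document: value is a count of indexed literature references citing a benign tumour confirmed by histopathology.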
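For Hepatotoxicity (choleostasis) in this document: human cholestatic liver injury, shown by histopathology or by peak ALT or AST elevation over alkaline phosphatase ratio below 2, value counts indexed literature reports.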
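For Hepatotoxicity (chronic liver disease) in this document: chronic liver injury confirmed by histopathology or persistently raised serum aminotransferase activity beyond 6 months, value given as the count of indexed literature references.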
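For Hepatotoxicity (cirrhosis) in this document: value is a count of indexed literature references reporting cirrhosis confirmed by histopathology.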
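For Hepatotoxicity (cytolytic) in this document: human cytolytic liver injury, shown by histopathology or by a ratio above 5 of peak ALT or AST elevation to alkaline phosphatase elevation, value counts indexed references.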
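For Hepatotoxicity (granulomatous hepatitis) in this document: value is a count of indexed literature references reporting granulomatous liver disease confirmed by histopathology.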
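For Hepatotoxicity (malignant tumour) in this document: malignant tumour confirmed by histopathology, value gives the count of indexed literature references reporting it.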
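For Hepatotoxicity (severe hepatitis) in this document: human clinical data: severe hepatitis, meaning potentially life-threatening liver failure or clinically observed cases, the value counts how many indexed literature references report it.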
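For Hepatotoxicity (steatosis) in this document: steatosis confirmed by histopathology, value is the count of indexed references.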

SMILES	Hepatotoxicity (malignant tumour) [1]	Hepatotoxicity (chronic liver disease) [2]	Hepatotoxicity (cytolytic) [3]	Hepatotoxicity (acute) [4] [%]	Hepatotoxicity (severe hepatitis) [5]	Hepatotoxicity (cirrhosis) [6]	Hepatotoxicity (steatosis) [7]	Hepatotoxicity (moderate) [8] [%]	Hepatotoxicity (time to onset) [9]	Hepatotoxicity (benign tumour) [10]	Hepatotoxicity (comment) [11]	Hepatotoxicity (granulomatous hepatitis) [12]	Hepatotoxicity (association with vascular disease) [13]	Hepatotoxicity (acute) [14]	Hepatotoxicity (choleostasis) [15]	Hepatotoxicity (moderate) [16]	Hepatotoxicity (acute) ([4]; Liver) [%]	Hepatotoxicity (severe hepatitis) ([5]; Liver)	Hepatotoxicity (moderate) ([8]; Liver) [%]	Hepatotoxicity (granulomatous hepatitis) ([12]; Liver)
Nc1c(CC(=O)O)cccc1C(=O)c1ccc(Br)cc1 [BROMFENAC]	0	0	7	0	7	0	0	0	2 weeks - 8 months	0	AC_ANTI-N	0	0	7	0	0				
CS(=O)(=O)OCCCCOS(C)(=O)=O [BUSULFAN]	0	0	3	6.7	4	1	0	100	2 days - 6 years	0	HNR(I/THIOGUANINE) MVO	0	42	6	3	11				
CCN1CCN(C(=O)N[C@@H](C(=O)N[C@@H]2C(=O)N3C(C(=O)O)=C(CSc4nnnn4C)CS[C@H]23)c2ccc(O)cc2)C(=O)C1=O [CEFOPERAZONE]	0	0	0			0	0		23 days	0	CHOLANGITE	0	0	0	0	15	0	1	20	
NS(=O)(=O)c1cc2c(cc1Cl)N=CNS2(=O)=O [CHLOROTHIAZIDE]	0	0	0	0	1	1	0	0	2 weeks - 2 years	0	#CBP	0	0	5	5	0				
c1ccc(C2(c3ccccc3)CC2C2=NCCN2)cc1 (stereo not drawn) [CIFENLINE]	0	0	2	0	0	0	0	4.1	47 days - 5.5 months	0	CHOLANGITE	0	0	2	0	2				
CC(C)(Oc1ccc(C2CC2(Cl)Cl)cc1)C(=O)O (stereo not drawn) [CIPROFIBRATE]	0	1	2	0	1	1	0	7.7	24 days - 15 months	0	AC_ANTI-N	0	0	3	1	7				
O=C(O)C1N=C(c2ccccc2)c2cc(Cl)ccc2NC1=O (stereo not drawn) [CLORAZEPIC ACID]	0	0	2	0	0	0	0	0	2 months - 3 months	0	CHOLESTASE_PROLONGEE	0	0	3	3	0				
O=C(O)c1cc(=O)c2c(OCC(O)COc3cccc4oc(C(=O)O)cc(=O)c34)cccc2o1 [CROMOLYN]	0	0	0	0	0	1	0	16.7	4 months - 10 months	0	#CBP	1	0	0	0	1				
CC(CN(C)C)CN1c2ccccc2Sc2ccc(C#N)cc21 (stereo not drawn) [CYAMEMAZINE]	0	0	1	0	1	0	0	0	2 days - 7 weeks	0	CHOLANGITE #CIRROSE_BILIAIRE RC/DESIPRAMINE/TRIMIPRAMINE	1	0	4	3	0				
C[C@@H]1C[C@H]2[C@@H]3CCC4=CC(=O)C=C[C@]4(C)[C@@]3(F)[C@@H](O)C[C@]2(C)[C@@]1(O)C(=O)CO [DEXAMETHASONE]	0	0	0	0	0	0	0	24	8 days - 18 days	0	HEPATOMEGALIE	0	0	0	0	2				
CC/C(=C(/CC)c1ccc(OP(=O)(O)O)cc1)c1ccc(OP(=O)(O)O)cc1 [DIETHYLSTILBESTROL DIPHOSPHATE]	0	1	0	0	0	1	1	6.3	3 months - 9 years	0	NASH	0	0	0	0	1				
CC/C(=C(/CC)c1ccc(O)cc1)c1ccc(O)cc1 [DIETHYLSTILBESTROL]	6	0	0	0	1	0	0	19	4 days - 15 years	0	ANGIOSARCOME RC/TAMOXIFENE		1	5	4	3				0
CN(C)CC/C=C1\c2ccccc2CSc2ccccc21 [DOTHIEPIN]	0	0	2	0	0	0	1	4.5	40 days - 69 days	0	RC/PAROXETINE	0	0	3	2	1				
